Results reported in patent US9434714B2, “Pyrimidine imidazole amines as modulators of kinase activity” (Merck Patent GmbH, priority 2014, dated 2016).

Legend:
[1] = biological target: T1, P70S6K (T412E mutant) (Homo sapiens, UniProt P23443, T412E); assay: P70S6K enzyme assay; type: biochemical; settings: 24 μM ATP, 90 min at 25° C., mobility shift (Caliper)
T1 construct: purchased Millipore
Description: P70S6K inhibitor compounds were diluted and plated in 96 well plates. A reaction mixture including the following components was then added to the compound plate to initiate the enzyme reaction; P70S6K (3 nM, T412E mutant, Millipore) was mixed with 24 μM ATP in an assay buffer containing 100 mM Hepes (pH 7.5), 5 mM MgCl2, 1 mM DTT, 0.015% Brij and 1 μM of the substrate peptide FITC-AHA-AKRRRLSSLRA-OH (derived from the S6 ribosomal protein sequence, FITC=fluorescein isothiocyanate, AHA=6-aminohexanoic acid). The reaction was incubated for 90 min at 25° C., before the addition of 10 mM EDTA to stop the reaction. The proportion of substrate and product (phosphorylated) peptide was analysed on a Caliper Life Sciences Lab Chip 3000, using a pressure of −1.4 psi, and upstream and downstream voltages of −3000 and −700 respectively. Product peaks were resolved before substrate peaks on the resulting chromatograms.

[2] = biological target: T2, His-AKT (Full Length) (Homo sapiens, UniProt P31749); assay: AKT enzyme assay; type: biochemical; settings: 160 uM ATP, 90 min at 25 C, off-chip mobility shift (Caliper)
T2 construct: His-AKT (Full Length); His; purchased Invitrogen P2999
Description: A TTP Mosquito liquid handling instrument was used to place 125 nl of the appropriate concentration of inhibitor in 100% DMSO (for a dose response curve calculation) into each well of a 384-well plate. To this reaction components were added to a final volume of 12.5 μl: • 0.1 ng/μ1 His-AKT (Full Length), (Invitrogen, Part # P2999, Lot #641228C). • 160 uM ATP (Fluka, 02055) • 1 mM DTT (Sigma, D0632) • 1 mM MgCl2 (Sigma, M1028) • 1 μM substrate peptide (sequence FITC-AHA-GRPRTSSFAEG-NH2), synthesized by Tufts Peptide Synthesis service. • 100 mM HEPES pH 7.5 (Calbiochem, 391338) • 0.015% Brij-35 (Sigma, B4184)
The reaction was incubated for 90 min at 25 C, and then stopped by the addition of 70 μl of Stop buffer (100 mM HEPES pH 7.5, 0.015% Brij-35, 10 mM EDTA (Sigma, E7889)).
The plate was read on a Caliper LC 3000 in an Off-Chip mobility shift assay format, using the following parameters for a 12-sipper chip: screening pressure—2.3 psi, upstream voltage—500, and downstream voltage—3000. These conditions cause unphosphorylated substrate and phosphorylated product peptide to resolve as separate peaks allowing direct measurement of percentage of conversion of substrate to product. The percent conversion was plotted against concentration of inhibitor to produce a sigmoidal dose response curve, from which an IC50 was calculated.

T1 sequence (P23443 whole entry T412E): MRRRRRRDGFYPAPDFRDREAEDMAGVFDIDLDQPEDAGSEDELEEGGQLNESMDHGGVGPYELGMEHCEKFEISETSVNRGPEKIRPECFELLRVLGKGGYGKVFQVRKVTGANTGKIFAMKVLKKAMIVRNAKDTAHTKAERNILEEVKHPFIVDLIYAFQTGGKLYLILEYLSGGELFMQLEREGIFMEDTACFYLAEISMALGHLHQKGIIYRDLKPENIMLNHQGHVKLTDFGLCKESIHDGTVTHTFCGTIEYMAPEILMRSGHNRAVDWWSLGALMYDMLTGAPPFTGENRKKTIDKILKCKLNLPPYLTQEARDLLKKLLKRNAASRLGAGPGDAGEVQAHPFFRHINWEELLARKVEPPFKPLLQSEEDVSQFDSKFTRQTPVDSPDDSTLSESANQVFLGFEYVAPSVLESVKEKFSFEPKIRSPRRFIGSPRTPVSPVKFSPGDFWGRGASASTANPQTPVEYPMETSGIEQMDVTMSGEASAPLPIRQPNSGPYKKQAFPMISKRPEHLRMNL
T2 sequence (P31749 whole entry): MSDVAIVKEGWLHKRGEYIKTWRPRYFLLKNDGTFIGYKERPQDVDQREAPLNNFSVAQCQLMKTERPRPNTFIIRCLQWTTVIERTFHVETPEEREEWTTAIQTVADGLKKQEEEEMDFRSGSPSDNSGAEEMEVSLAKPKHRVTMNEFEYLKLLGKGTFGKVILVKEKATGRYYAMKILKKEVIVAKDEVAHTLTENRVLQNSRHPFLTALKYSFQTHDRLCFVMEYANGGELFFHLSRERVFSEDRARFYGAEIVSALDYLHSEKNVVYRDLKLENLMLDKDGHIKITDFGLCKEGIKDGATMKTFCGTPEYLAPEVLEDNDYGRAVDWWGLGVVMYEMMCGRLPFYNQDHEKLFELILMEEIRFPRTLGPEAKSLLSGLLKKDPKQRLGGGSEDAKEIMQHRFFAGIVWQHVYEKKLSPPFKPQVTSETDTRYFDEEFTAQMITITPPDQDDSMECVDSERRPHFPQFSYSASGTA

| IC50 [1] [nM] | IC50 [2] [nM] | SMILES |
| --- | --- | --- |
| > 15 | > 15 | CN(C)CCn1cc(-c2ccnc(C(F)(F)F)c2)nc1C1CCN(c2ncnc(N)c2C(N)=O)CC1 [Compound 30] |
| 3 to 15 | 3 to 15 | CCNCCn1cc(-c2ccc(F)c(C(F)(F)F)c2)nc1C1CCN(c2ncnc(N)c2C(C)C)CC1 [Compound 31, 6-{4-[1-(2-Ethylamino-ethyl)-4-(4-fluoro-3-trifluoromethyl-phenyl)-1H-imidazol-2-yl]-piperidin-1-yl}-5-isopropyl-pyrimidin-4-ylamine] |
| < 3 | 3 to 15 | Cc1cc(-c2cn(CCNCCCCl)c(C3CCN(c4ncnc(N)c4C(C)C)CC3)n2)ccc1F [Compound 32, 6-{4-[1-[2-(3-Chloro-propylamino)-ethyl]-4-(4-fluoro-3-methyl-phenyl)-1H-imidazol-2-yl]-piperidin-1-yl}-5-isopropyl-pyrimidin-4-ylamine] |
